Assay results taken from US20050288300A1, “Methods of use fluoroquinolone compounds against maxillary sinus pathogenic bacteria” (LG Life Sciences Limited., priority 1999, published 2005).
≈ marks a conversion by molar mass, not a printed value.

Columns and labels:
Format in all cases: cell-based
[1] = system: Haemophilus parainfluenzae; test: MIC by agar dilution, maxillary sinus isolates; details: H. parainfluenzae (n = 10); for MIC: 24 h
Protocol: (§1) Test strains were obtained from recent maxillary sinus aspiration. Identification of organisms was by standard methods (see, for example, Murray, P. R., et al. Manual of Clinical Microbiology. 6th ed. American Society of Microbiology 1995: 282-620).
(§2) Antimicrobial activity was tested against 250 selected isolates (Table 1).
(§3) The agar dilution method using replicate plating of the organisms onto a series of agar plates of increasing concentrations was used (see, for example, National Committee for Clinical Laboratory Standards. Methods for antimicrobial susceptibility tests for bacteria that growth aerobically. Approved standards M 7-A4. National Committee for Laboratory Standards, Villanova, Pa., 1997).
(§4) MICs were determined by using doubling dilutions of between 0.02-256 mg/L with an inoculum of 10^4 CFU in area of 5-8 mm.
(§5) Haemophilus Test Medium was used for Haemophilus spp. and Wilkins-Chalgren agar was used for anaerobes.

Staphylococcus aureus = test: MIC by agar dilution, maxillary sinus isolates; details: S. aureus (n = 31)
Protocol: as §1, §2, §3, §4, §5

[2] = MIC by agar dilution, maxillary sinus isolates; details: Streptococcus spp.: 5 Enterobacteriaceae, 6 non-fermentative Gram negative bacilli, 2 Neisseria meningitidis, 2 beta-haemolytic Streptococcus
Protocol: as §1, §2, §3, §4, §5

Moraxella catarrhalis = test: MIC by agar dilution, maxillary sinus isolates; details: M. catarrhalis (n = 45); for MIC / MIC50 / MIC90: Moraxella catarrhalis; for MIC: 24 h
Protocol: as §1, §2, §3, §4, §5

Streptococcus pneumoniae = test: MIC by agar dilution, maxillary sinus isolates; details: S. pneumoniae (n = 85); for MIC / MIC50 / MIC90: Streptococcus pneumoniae; for MIC: 24 h
Protocol: as §1, §2, §3, §4, §5

Haemophilus influenzae = test: MIC by agar dilution, maxillary sinus isolates; details: H. influenzae (n = 45); for MIC / MIC50 / MIC90: Haemophilus influenzae; for MIC: 24 h
Protocol: as §1, §2, §3, §4, §5

Anaerobic strains = test: MIC by agar dilution, maxillary sinus isolates; details: for MIC: 24 h, Anaerobic strains (n = 22): 12 Bacteroides spp., 7 Peptostreptococcus spp., 3 Bacteroides urealyticus
Protocol: as §1, §2, §3, §4, §5

Streptococcus spp. = test: MIC by agar dilution, maxillary sinus isolates; details: Streptococcus spp. (various other strains, 15)
Protocol: as §1, §2, §3, §4, §5

SMILES | MIC [1] | MIC Range (Staphylococcus aureus) | MIC Range [2] | MIC (Moraxella catarrhalis) | MIC50 (Moraxella catarrhalis) | MIC (Streptococcus pneumoniae) | MIC (Haemophilus influenzae) | MIC50 (Haemophilus influenzae) | MIC90 (Haemophilus influenzae) | MIC (Anaerobic strains) | MIC90 (Streptococcus pneumoniae) | MIC50 (Anaerobic strains; Anaerobic strains (n = 22)) | MIC50 (Staphylococcus aureus; Staphylococcus aureus) | MIC 90% (Streptococcus pneumoniae) | also measured
CO/N=C1\CN(c2nc3c(cc2F)c(=O)c(C(=O)O)cn3C2CC2)CC1CN (racemic) [Gemifloxacin, (R,S)-7-(3-aminomethyl-4-methoxyiminopyrrolidin-1-yl)-1-cyclopropyl-6-fluoro-4-oxo-1,4-dihydro-1,8-naphthyridine-3-carboxylic acid] | 0.02 to 0.12 µg/mL (≈ 0.0514 to 0.308 µM) | 0.03 to 1 µg/mL | ≦0.02-0.5 mg/L | 0.02 to 0.03 µg/mL (≈ 0.0514 to 0.077 µM) | ≤ 0.02 µg/mL | 0.02 to 0.06 µg/mL (≈ 0.0514 to 0.154 µM) | 0.02 to 0.03 µg/mL (≈ 0.0514 to 0.077 µM) | ≤ 0.02 µg/mL | ≤ 0.02 µg/mL | 0.03 to 0.25 µg/mL (≈ 0.077 to 0.642 µM) | – | – | – | – | MIC 90% (Moraxella catarrhalis): ≦0.02 mg/L; MIC90 (Moraxella catarrhalis): ≤ 0.02 µg/mL; MIC 90% (Haemophilus influenzae): ≦0.02 mg/L
CC1(C)S[C@@H]2[C@H](NC(=O)[C@H](N)c3ccc(O)cc3)C(=O)N2[C@H]1C(=O)O [Amoxycillin] | 0.03 to 1 µg/mL (≈ 0.0821 to 2.74 µM) | 0.06 to 2 µg/mL | – | 0.02 to 16 µg/mL (≈ 0.0547 to 43.8 µM) | – | 0.02 to 1 µg/mL (≈ 0.0547 to 2.74 µM) | – | 0.25 µg/mL (≈ 0.684 µM) | 2 µg/mL (≈ 5.47 µM) | – | 0.03 µg/mL (≈ 0.0821 µM) | 0.25 µg/mL (≈ 0.684 µM) | – | – | MIC50 (Streptococcus spp.): 2 µg/mL (≈ 5.47 µM); MIC90 (Streptococcus spp.): 4 µg/mL (≈ 10.9 µM); MIC50 [1]: 0.06 µg/mL (≈ 0.164 µM); MIC90 [1]: 1 µg/mL (≈ 2.74 µM); MIC 90% (Staphylococcus aureus): 1 µg/mL (≈ 2.74 µM); MIC90 (Staphylococcus aureus; Staphylococcus aureus): ≥ 1 µg/mL; MIC50 (Streptococcus pneumoniae): 0.03 µg/mL (≈ 0.0821 µM)
Cc1c(F)c(N2CCNC(C)C2)cc2c1c(=O)c(C(=O)O)cn2C1CC1 (centres unmarked) [Grepafloxacin] | 0.02 to 0.12 µg/mL (≈ 0.0556 to 0.334 µM) | 0.06 to 0.25 µg/mL | ≦0.02-1 mg/L | 0.02 to 0.25 µg/mL (≈ 0.0556 to 0.696 µM) | ≤ 0.02 µg/mL | 0.03 to 0.5 µg/mL (≈ 0.0835 to 1.39 µM) | 0.02 to 0.03 µg/mL (≈ 0.0556 to 0.0835 µM) | ≤ 0.02 µg/mL | ≤ 0.02 µg/mL | 0.25 to 8 µg/mL (≈ 0.696 to 22.3 µM) | ≥ 0.25 µg/mL | 0.25 µg/mL (≈ 0.696 µM) | 0.12 µg/mL (≈ 0.334 µM) | 0.25 µg/mL (≈ 0.696 µM) | MIC90 [1]: 0.1 µg/mL (≈ 0.278 µM); MIC 90% (Moraxella catarrhalis): ≦0.02 mg/L; MIC90 (Moraxella catarrhalis): ≤ 0.02 µg/mL; MIC50 (Streptococcus pneumoniae): 0.25 µg/mL (≈ 0.696 µM); MIC 90% (Haemophilus influenzae): ≦0.02 mg/L; MIC90 (Anaerobic strains; Anaerobic strains (n = 22)): 8 µg/mL (≈ 22.3 µM)
C[C@H]1COc2c(N3CCN(C)CC3)c(F)cc3c(=O)c(C(=O)O)cn1c23 [Levofloxacin] | 0.03 to 0.25 µg/mL (≈ 0.083 to 0.692 µM) | 0.12 to 0.5 µg/mL | 0.03 to 0.25 µg/mL | 0.02 to 0.12 µg/mL (≈ 0.0553 to 0.332 µM) | – | 0.12 to 2 µg/mL (≈ 0.332 to 5.53 µM) | 0.02 to 0.03 µg/mL (≈ 0.0553 to 0.083 µM) | – | – | 0.12 to 1 µg/mL (≈ 0.332 to 2.77 µM) | – | – | – | 1 µg/mL (≈ 2.77 µM) | MIC50 (Streptococcus spp.): 0.12 µg/mL (≈ 0.332 µM)
COc1c(N2C[C@@H]3CCCN[C@@H]3C2)c(F)cc2c(=O)c(C(=O)O)cn(C3CC3)c12 [Moxifloxacin] | – | 0.03 to 0.12 µg/mL | ≦0.02-0.5 mg/L | – | – | – | 0.02 to 0.12 µg/mL (≈ 0.0498 to 0.299 µM) | 0.13 µg/mL (≈ 0.324 µM) | – | – | – | – | – | – | –
CC1COc2c(N3CCN(C)CC3)c(F)cc3c(=O)c(C(=O)O)cn1c23 (centres unmarked) [Ofloxacin] | – | 0.25 to 1 µg/mL | 0.06 to 0.5 µg/mL | 0.02 to 0.25 µg/mL (≈ 0.0553 to 0.692 µM) | – | 0.25 to 4 µg/mL (≈ 0.692 to 11.1 µM) | 0.02 to 0.06 µg/mL (≈ 0.0553 to 0.166 µM) | – | – | 0.25 to 2 µg/mL (≈ 0.692 to 5.53 µM) | – | 0.5 µg/mL (≈ 1.38 µM) | 0.5 µg/mL (≈ 1.38 µM) | 2 µg/mL (≈ 5.53 µM) | –
C[C@@H]1CN(c2c(F)c(N)c3c(=O)c(C(=O)O)cn(C4CC4)c3c2F)C[C@H](C)N1 [Sparfloxacin] | – | – | ≦0.02-0.5 mg/L | 0.02 to 1 µg/mL (≈ 0.051 to 2.55 µM) | ≤ 0.02 µg/mL | 0.03 to 0.5 µg/mL (≈ 0.0765 to 1.27 µM) | 0.03 to 1 µg/mL (≈ 0.0765 to 2.55 µM) | – | – | 0.25 to 16 µg/mL (≈ 0.637 to 40.8 µM) | ≥ 0.25 µg/mL | – | – | 0.5 µg/mL (≈ 1.27 µM) | –
N[C@@H]1[C@H]2CN(c3nc4c(cc3F)c(=O)c(C(=O)O)cn4-c3ccc(F)cc3F)C[C@@H]12 [Trovafloxacin] | 0.02 to 0.12 µg/mL (≈ 0.048 to 0.288 µM) | – | ≦0.02-0.5 mg/L | 0.02 to 0.06 µg/mL (≈ 0.048 to 0.144 µM) | ≤ 0.02 µg/mL | 0.02 to 0.12 µg/mL (≈ 0.048 to 0.288 µM) | 0.02 to 0.06 µg/mL (≈ 0.048 to 0.144 µM) | ≤ 0.02 µg/mL | – | 0.06 to 4 µg/mL (≈ 0.144 to 9.61 µM) | – | – | 0.03 µg/mL (≈ 0.0721 µM) | – | MIC50 [1]: 0.03 µg/mL (≈ 0.0721 µM); MIC 90% (Staphylococcus aureus): 0.03 µg/mL (≈ 0.0721 µM)
